Assay [1] deals with T1, PKA type Iα (RIα/Cα) holoenzyme (Homo sapiens, UniProt P10644). The assay can be described thus: Cook coupled spectrophotometric kinase assay, suppression (antagonist) assay, PKA type Iα. Format: biochemical. Particulars: for Antagonist / EC50: Table 1 (Example 83), PKA type Iα; for EC50: unit inferred, read-out: EC50 inhibition; for relative potency*: antagonists relative to Rp-8Br-cAMPS; for Potency: PKA type Iα enzymatic activity, relative to the known Rp-8-Br-cAMPS.

The target of assay [2] is T1, PKA type Iα (RIα/Cα) holoenzyme. Kind of assay: Cook assay, activation (agonist) assay, RIα holoenzyme. Format: biochemical. The conditions noted are these: Table 1 (Example 83), activation screen 10 μM analog.
Assay [3] concerns Human peripheral T lymphocytes. The assay can be described thus: T lymphocyte proliferation assay (anti-CD3 activated, [3H]thymidine). The conditions noted are these: Ex vivo testing in T lymphocytes; for Antagonist properties: in presence of agonist Sp-8-Br-cAMPS; for relative potency*: reference compounds = 1.00.
Assay [4] concerns the target T2, PKA type IIα (RIIα holoenzyme) (Homo sapiens, UniProt P13861). Kind of assay: Cook kinase assay, suppression assay, PKA type IIα. Particulars: for relative inhibition*: % antagonist effect with 1 μM Sp-8Br-cAMPS at 250 μM of Rp-cAMPS analog; for EC50RII/EC50RI***: Selectivity for PKA type I (EC50 PKA type II/EC50 PKA type I); for Antagonist / EC50: Table 2, Holo RIIa; for EC50: unit inferred, read-out: EC50 inhibition; for relative potency**: antagonists relative to Rp-8-Br-cAMPS, Holo RIIa; for IC50: reversal of Sp-8-Br-cAMP-mediated PKA type II activation, 1 μM Sp-8-Br cAMPS, 10 nM RIIα holoenzyme, read-out: half-maximal antagonistic effect (IC50 or EC50). Format: biochemical.

The next assay has as its target PKA type Iα (holo RIα) (Homo sapiens, UniProt P10644). Kind of assay: Biacore surface competition ligand binding assay, holo RIα. The conditions noted are these: 10 nM holo RIα; for EC50: Rp-8-AHA cAMPS surface.
Assay [5] deals with CD4+ T cells of MAIDS-infected C57BL6 mice. The conditions noted are these: mouse, in vivo.
Assay [6] addresses T2, PKA type IIα (RIIα holoenzyme). Kind of assay: Cook assay, activation of Holo RIIα. Particulars: for Agonist: Table 2, Holo RIIa.
[7] abbreviates: reversal of Sp-8-Br-cAMP-mediated PKA activation, 1 μM Sp-8-Br-cAMPS, 10 nM RIα holoenzyme, read-out: half-maximal antagonistic effect (IC50 or EC50).

Several values for one entry are separate records, joined by “and”; a condition that tells them apart may be missing. Equal entries are not always repeated. Structures can show the parent of a compound that is named as a salt. Where two headings read alike, the source gives them in different places.

Regarding `Nc1ncnc2c1nc(-c1ccc(Br)o1)n2C1OC2COP(O)(=S)OC2C1O` (stereo not shown) [Rp-8-(2-Br-5-furyl)-cAMPS], in assay [1], the Antagonist result is recorded as “yes*”, the EC50 turned out to be 3 µM and the “relative potency*” value is listed as 0.45. Further, in assay [1] (setting [7]), the IC50 was determined as 2.9 µM. The Agonist entry in assay [2] is listed as “no”. In assay [3], the Agonist properties entry was “No” and the Antagonist properties entry is recorded as “Yes”.

As for `Nc1ncnc2c1nc(-c1ccco1)n2C1OC2COP(O)(=S)OC2C1O` (stereo not shown) [Rp-8-(2-furyl)-cAMPS, (Rp)-8-(2-Furyl)adenosine-3′,5′-cyclic phosphorothioic acid ammonium salt], in assay [1], the Potency is reported as 4.24, the Antagonist result is recorded as “yes”, the EC50 stood at 0.319 µM and the “relative potency*” value is 4.24. Besides, the IC50 in assay [1] (Table 3, read-out: holo RIa Cook) was determined as 0.349 µM. Also, the IC50 in assay [1] (setting [7]) was 0.238 µM and 0.337 µM and 0.36 µM. Further, the Agonist result in assay [2] is recorded as “no”. Moreover, in assay [4], the “relative inhibition*” value was determined as 59%, the “EC50RII/EC50RI***” value stood at 32, the Antagonist result is on record as “yes” and the EC50 turned out to be 11.6 µM. In addition, in assay [4], the “relative potency**” value worked out at 1.28; the IC50 was 11.6 µM and 16.7 µM. The same molecule returned an EC50 on PKA type Iα (holo RIα) of 0.377 µM. Besides, the “binding to 8-AHA cAMP surface” value at PKA type Iα (holo RIα) (any concentration of antagonist) was “not affected”. Besides, on PKA type Iα (holo RIα) (excess of antagonist 10 μM), the “binding of holo complex at the Rp-8-AHA cAMPS surface” value was “completely blocked” and the “effect in binding to the 8-AHA cAMP surface” value is reported as “no effect”. In addition, in assay [5], the “IFN-γ secretion of CD4+ T cells from the infected mice” value was “slightly increasing”, the “TNF-α secretion by CD4 T cells of infected mice” value is reported as “inhibited”, the “TNF-α secretion of CD4+ T cells from the infected mice after stimulation with SEB” value is recorded as “reducing” and the “significance (p) of effect on SEB stimulated TNF-α secretion by CD4 T cells” value was determined as 0.0041. For the same molecule, the Agonist result in assay [6] was “no”. In assay [3], the Agonist properties result was “No” and the Antagonist properties entry is on record as “Yes”.

Regarding `Nc1ncnc2c1nc(-c1cccs1)n2C1OC2COP(O)(=S)OC2C1O` (stereo not shown) [Rp-8-(2-thienyl)-cAMPS, (Rp)-8-(2-Thienyl)adenosine-3′,5′-cyclic phosphorothioic acid ammonium salt], in assay [1], the Potency worked out at 3.01, the Antagonist entry is “yes” and the “relative potency*” value turned out to be 3.01. Further, the IC50 in assay [1] (setting [7]) stood at 0.449 µM. The Agonist entry in assay [2] is reported as “no”. For the same molecule, in assay [3], the Agonist properties entry is on record as “No” and the Antagonist properties result was “Yes”.

As to `Nc1ncnc2c1nc(-c1ccoc1)n2C1OC2COP(O)(=S)OC2C1O` (stereo not shown) [Rp-8-(3-furyl)-cAMPS, (Rp)-8-(3-Furyl)adenosine-3′,5′-cyclic phosphorothioic acid ammonium salt], in assay [1], the Potency is recorded as 2.23, the Antagonist entry was “yes” and the “relative potency*” value turned out to be 2.23. Moreover, the IC50 in assay [1] (setting [7]) worked out at 0.607 µM. The Agonist result in assay [2] is listed as “no”. For the same molecule, the EC50 at PKA type Iα (holo RIα) was 0.743 µM. In assay [3], the Antagonist properties result was “Yes”.

In the case of `Nc1ncnc2c1nc(-c1ccsc1)n2C1OC2COP(O)(=S)OC2C1O` (stereo not shown) [Rp-8-(3-thienyl)-cAMPS], in assay [1], the Potency is given as 1.83, the Antagonist entry was “yes” and the “relative potency*” value is recorded as 1.83. The IC50 in assay [1] (setting [7]) amounted to 0.739 µM. Further, the Agonist entry in assay [2] was “no”. Moreover, the Antagonist properties result in assay [3] is recorded as “Yes”.

As to `Cc1ccc(-c2nc3c(N)ncnc3n2C2OC3COP(O)(=S)OC3C2O)o1` (stereo not shown) [Rp-8-(5-Me-2-furyl)-cAMPS, (Rp)-8-(5-Methyl-2-furyl)adenosine-3′,5′-cyclic phosphorothioic acid tributylammonium salt], in assay [1], the Antagonist result was “yes” and the “relative potency*” value is 1.17. In addition, in assay [1] (setting [7]), the IC50 was determined as 1.16 µM. Further, in assay [2], the Agonist result is reported as “no”. In assay [3], the Agonist properties result was “No” and the Antagonist properties entry is reported as “Yes”.

Consider `Nc1ncnc2c1nc(-c1ccc(CO)o1)n2C1OC2COP(O)(=S)OC2C1O` (stereo not shown) [Rp-8-(5-MeOH-2-furyl)-cAMPS, (Rp)-8-(2-Hydroxymethyl-5-furyl)adenosine-3′,5′-cyclic phosphorothioic acid tributylammonium salt], for which, in assay [1], the Antagonist entry is on record as “yes” and the “relative potency*” value is on record as 0.68. Moreover, the IC50 in assay [1] (setting [7]) is 1.98 µM. Besides, the Agonist entry in assay [2] is listed as “no”. Besides, in assay [3], the Agonist properties result is listed as “No” and the Antagonist properties result is recorded as “Yes”.

On to `CC(=O)c1nc2c(N)ncnc2n1C1OC2COP(O)(=S)OC2C1O` (stereo not shown) [Rp-8-acetyl-cAMPS], for which, in assay [1], the Antagonist entry is given as “yes” and the “relative potency*” value is 0.86. For the same molecule, the IC50 in assay [1] (setting [7]) came to 1.58 µM. For the same molecule, the Agonist result in assay [2] is “no”. Also, in assay [3], the Agonist properties result is reported as “No” and the Antagonist properties result is recorded as “Yes”.

For the molecule `Nc1ncnc2c1nc(-c1cc3ccccc3o1)n2C1OC2COP(O)(=S)OC2C1O` (stereo not shown) [Rp-8-benzofuryl-cAMPS, (Rp)-8-(2-Benzofuryl)adenosine-3′,5′-cyclic phosphorothioic acid tributylammonium salt], in assay [1], the Antagonist result was “yes”, the EC50 was found to be 2.78 µM and the “relative potency*” value came out at 0.49. The Agonist result in assay [2] is on record as “no”. Also, in assay [3], the Agonist properties result is given as “No” and the Antagonist properties result is “Yes”.

On to `CCc1nc2c(N)ncnc2n1C1OC2COP(O)(=S)OC2C1O` (stereo not shown) [Rp-8-ethyl-cAMPS], for which, in assay [1], the Antagonist result is on record as “yes” and the “relative potency*” value is 0.22. Also, the IC50 in assay [1] (setting [7]) was determined as 6.13 µM. For the same molecule, the Agonist result in assay [2] was “no”. For the same molecule, in assay [3], the Agonist properties result was “No” and the Antagonist properties result was “Yes”.

In the case of `Nc1ncnc2c1nc(-c1ccccc1)n2C1OC2COP(O)(=S)OC2C1O` (stereo not shown) [Rp-8-phenyl-cAMPS, (Rp)-8-Phenyladenosine-3′,5′-cyclic phosphorothioic acid], in assay [1], the Potency is given as 1.28, the Antagonist result is recorded as “yes”, the EC50 turned out to be 1.06 µM and the “relative potency*” value is 1.28. The Agonist entry in assay [2] is reported as “no”. In addition, in assay [4], the “relative inhibition*” value is reported as 61%, the “EC50RII/EC50RI***” value is listed as 46, the Antagonist result is “yes” and the concentration giving a half-maximal response (EC50) was found to be 48.6 µM. Also, in assay [4], the “relative potency**” value was 0.31 and the IC50 is 48.6 µM. Further, the Agonist entry in assay [6] is “no”. Besides, in assay [3], the Agonist properties result is listed as “No” and the Antagonist properties result is on record as “Yes”.

As to `Nc1ncnc2c1nc(Br)n2[C@@H]1O[C@@H]2COP(O)(=S)O[C@@H]2C1O` (stereo partly shown) [Sp-8-Br-cAMPS, reference compound], in assay [4], the Antagonist entry is recorded as “no”. The Agonist result in assay [6] is given as “yes”. Moreover, the concentration for a half-maximal effect (EC50) in assay [6] (read-out: EC50 (activation constant of Holo RIIα with agonist), 10 nM Holo RIIα, 3 minute preincubation) is 0.294 µM. Moreover, in assay [3], the Agonist properties result is “Yes”, the Antagonist properties result was “No” and the “relative potency*” value stood at 1.00.

In the case of “(Rp)-8-(2-Thiazolyl)adenosine-3′,5′-cyclic phosphorothioic acid ammonium salt [Rp-8-(2-thiazole)-cAMPS]”, in assay [3], the Agonist properties result is given as “No” and the Antagonist properties result is listed as “Weak”.

In the case of “(Rp)-8-(5-Methoxy-2-furyl)adenosine-3′,5′-cyclic phosphorothioic acid tributylammonium salt [Rp-8-(5-MeO-2-FU)-cAMPS]”, in assay [3], the Agonist properties entry is “No”, the Antagonist properties result was “Yes” and the “relative potency*” value amounted to 0.25.

For the origin of these results see patent US8153609B2 (priority 2004, dated 2012).
